Measured values as given in patent US20070010670A1, “Nitrogen-containing fused ring compounds and use thereof” (Japan Tobacco Inc., priority 2004, published 2007).

Each compound was assayed against T1, CYP2C9 (Homo sapiens, UniProt P11712) (assay: CYP inhibitory test using human liver microsome). Conditions: model substrate diclofenac, 37° C. 10 min, read-out: CYP2C9 inhibition IC50.
T1 construct: Human liver microsome (20 mg protein/mL, 5 μL, Xenotech LLC, purchased from Lenexa KS); tissue Xenotech LLC; host or cells: human liver microsome
T1 sequence (P11712 whole entry): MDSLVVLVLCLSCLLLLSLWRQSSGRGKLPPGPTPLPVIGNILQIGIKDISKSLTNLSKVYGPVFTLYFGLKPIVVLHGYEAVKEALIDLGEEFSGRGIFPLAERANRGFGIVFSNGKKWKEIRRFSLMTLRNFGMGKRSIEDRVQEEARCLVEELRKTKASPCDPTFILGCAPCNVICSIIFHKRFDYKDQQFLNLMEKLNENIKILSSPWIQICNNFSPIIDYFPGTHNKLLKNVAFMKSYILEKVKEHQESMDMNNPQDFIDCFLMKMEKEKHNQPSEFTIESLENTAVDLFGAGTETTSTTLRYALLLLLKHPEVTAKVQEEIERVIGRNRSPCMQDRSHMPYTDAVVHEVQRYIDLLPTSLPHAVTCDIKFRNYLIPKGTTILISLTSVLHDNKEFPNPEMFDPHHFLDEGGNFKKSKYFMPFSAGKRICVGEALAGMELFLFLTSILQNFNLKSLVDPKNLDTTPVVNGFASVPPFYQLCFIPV
Format: in vitro ADME
Method: Human liver microsome (20 mg protein/mL, 5 μL, Xenotech LLC, purchased from Lenexa KS) was suspended in 100 mM potassium phosphate buffer (70 μL, pH 7.4), mixed with a solution (0.5 μL) of the Example compound dissolved in DMSO and preincubated at 37° C. for 5 min. NADPH producing system coenzyme solution (β-nicotinamide adenine dinucleotide phosphate: 5.2 mM, D-glucose-6-phosphate: 13.2 mM, magnesium chloride: 13.2 mM, glucose-6-phosphate dehydrogenase: 1.8 U/mL) 25 μL, and a model substrate (CYP3A4: midazolam 1 mM, CYP2D6: bufuralol 1 mM, CYP2C9: diclofenac 2 mM) 0.5 μL dissolved in DMSO were added to start the reaction. After incubation at 37° C. for 10 min., acetonitrile (200 μL) containing an internal standard substance (propranolol 1 μM) was added and the mixture was centrifuged (room temperature, 3000 rpm, 20 min). The amount of the metabolite produced from each model substrate in the supernatant was measured by high performance liquid chromatography/mass spectrometry (LC/MS/MS) and each CYP enzyme activity was determined. The concentration showing 50% inhibition (IC50) was calculated relative to the enzyme activity without addition of Example compound (DMSO 0.5 μL added) as 100%.

`O=C(c1ccc([N+](=O)[O-])cc1)N1CCOc2ccccc21` [Example 43, (2,3-dihydrobenzo[1,4]oxazin-4-yl)-(4-nitrophenyl)-methanone] and `O=C(O)c1ccc(C(=O)N2CCOc3ccccc32)cc1` [Example 47, 4-(2,3-dihydrobenzo[1,4]oxazine-4-carbonyl)benzoic acid] cannot be ordered by IC50: greater than 50 µM for the first, greater than 50 µM for the second.

Compared with `O=C(c1cc(Cl)c(O)c(Cl)c1)N1CCOc2ccc(F)cc21` [Example 44, (3,5-dichloro-4-hydroxyphenyl)-(6-fluoro-2,3-dihydrobenzo[1,4]oxazin-4-yl)-methanone], `O=C(c1cc(Cl)c(O)c(Cl)c1)N1CCOc2ccc(Cl)cc21` [Example 51, (6-chloro-2,3-dihydrobenzo[1,4]oxazin-4-yl)-(3,5-dichloro-4-hydroxyphenyl)-methanone] is 1.9-fold lower in IC50: 31 µM for the first, 16 µM for the second.

`O=C(O)c1ccccc1C(=O)N1CCOc2ccccc21` [Example 45, 2-(2,3-dihydrobenzo[1,4]oxazine-4-carbonyl)benzoic acid] and `O=C(O)c1cccc(C(=O)N2CCOc3ccccc32)c1` [Example 49, 3-(2,3-dihydrobenzo[1,4]oxazine-4-carbonyl)benzoic acid] cannot be ordered by IC50: greater than 50 µM for the first, greater than 50 µM for the second.

`COC(=O)c1ccc(C(=O)N2CCOc3ccccc32)cc1` [Example 46, methyl 4-(2,3-dihydrobenzo[1,4]oxazine-4-carbonyl)benzoate] and `COC(=O)c1cccc(C(=O)N2CCOc3ccccc32)c1` [Example 48, methyl 3-(2,3-dihydrobenzo[1,4]oxazine-4-carbonyl)benzoate] cannot be ordered by IC50: greater than 50 µM for the first, greater than 50 µM for the second.

Compared with `O=C(c1cc(Cl)c(O)c(Cl)c1O)N1CCOc2ccccc21` [Example 50, (3,5-dichloro-2,4-dihydroxyphenyl)-(2,3-dihydrobenzo[1,4]oxazin-4-yl)-methanone], `O=C(c1cc(Cl)cc(Cl)c1)N1CCOc2ccccc21` [Example 63, (3,5-dichlorophenyl)-(2,3-dihydrobenzo[1,4]oxazin-4-yl)-methanone] is higher in IC50: 15 µM for the first, greater than 50 µM for the second. The first is the more potent here.

`O=C(c1cc(Cl)c(O)c(Cl)c1)N1CCOc2cc(Cl)ccc21` [Example 52, (7-chloro-2,3-dihydrobenzo[1,4]oxazin-4-yl)-(3,5-dichloro-4-hydroxyphenyl)-methanone] and `Nc1ccc2c(c1)OCCN2C(=O)c1cc(Cl)c(O)c(Cl)c1` [Example 71, (7-amino-2,3-dihydrobenzo[1,4]oxazin-4-yl)-(3,5-dichloro-4-hydroxyphenyl)-methanone] are within 1.5-fold of each other in IC50: 11 µM for the first, 15 µM for the second.

Compared with `O=C(c1cc(Cl)c(O)c(Cl)c1)N1CCN(C(=O)c2cc(Cl)c(O)c(Cl)c2)c2ccccc21` [Example 53, [4-(3,5-dichloro-4-hydroxybenzoyl)-3,4-dihydro-2H-quinoxalin-1-yl]-(3,5-dichloro-4-hydroxyphenyl)-methanone], `CC(=O)N1CCN(C(=O)c2cc(Cl)c(O)c(Cl)c2)c2ccccc21` [Example 73, 1-[4-(3,5-dichloro-4-hydroxybenzoyl)-3,4-dihydro-2H-quinoxalin-1-yl]-ethanone] is higher in IC50: 6 µM for the first, greater than 50 µM for the second. The first is the more potent here.

Going from `O=C(c1cc(Cl)c(O)c(Cl)c1)N1CCNc2ccccc21` [Example 54, (3,5-dichloro-4-hydroxyphenyl)-(3,4-dihydro-2H-quinoxalin-1-yl)-methanone] to `O=C(c1cc(Cl)c(O)c(Cl)c1)N1CCc2ccccc21` [Example 77, (3,5-dichloro-4-hydroxyphenyl)-(2,3-dihydroindol-1-yl)-methanone], the IC50 falls from 48 µM to 18 µM (2.7-fold). The second is the more potent here.

Going from `COC(=O)c1ccc2c(c1)N(C(=O)c1cc(Cl)c(O)c(Cl)c1)CCO2` [Example 55, methyl 4-(3,5-dichloro-4-hydroxybenzoyl)-3,4-dihydro-2H-benzo[1,4]oxazine-6-carboxylate] to `COC(=O)c1ccc2c(c1)OCCN2C(=O)c1cc(Cl)c(O)c(Cl)c1` [Example 59, methyl 4-(3,5-dichloro-4-hydroxybenzoyl)-3,4-dihydro-2H-benzo[1,4]oxazine-7-carboxylate], the IC50 falls from 19 µM to 8 µM (2.4-fold).

First: O=C(c1cc(Cl)c(O)c(Cl)c1)N1CCOc2ccc(CO)cc21 [Example 56, (3,5-dichloro-4-hydroxyphenyl)-(6-hydroxymethyl-2,3-dihydrobenzo[1,4]oxazin-4-yl)-methanone]
Second: Nc1ccc2c(c1)N(C(=O)c1cc(Cl)c(O)c(Cl)c1)CCO2 [Example 68, (6-amino-2,3-dihydrobenzo[1,4]oxazin-4-yl)-(3,5-dichloro-4-hydroxyphenyl)-methanone]
The IC50 of the first is higher: greater than 50 µM for the first, 27 µM for the second.

`O=C(O)c1ccc2c(c1)N(C(=O)c1cc(Cl)c(O)c(Cl)c1)CCO2` [Example 57, 4-(3,5-dichloro-4-hydroxybenzoyl)-3,4-dihydro-2H-benzo[1,4]oxazine-6-carboxylic acid] and `O=C(O)c1ccc2c(c1)OCCN2C(=O)c1cc(Cl)c(O)c(Cl)c1` [Example 60, 4-(3,5-dichloro-4-hydroxybenzoyl)-3,4-dihydro-2H-benzo[1,4]oxazine-7-carboxylic acid] cannot be ordered by IC50: greater than 50 µM for the first, greater than 50 µM for the second.

Compared with `COC(=O)c1cccc2c1N(C(=O)c1cc(Cl)c(O)c(Cl)c1)CCO2` [Example 58, methyl 4-(3,5-dichloro-4-hydroxybenzoyl)-3,4-dihydro-2H-benzo[1,4]oxazine-5-carboxylate], `COC(=O)c1cccc2c1OCCN2C(=O)c1cc(Cl)c(O)c(Cl)c1` [Example 61, methyl 4-(3,5-dichloro-4-hydroxybenzoyl)-3,4-dihydro-2H-benzo[1,4]oxazine-8-carboxylate] is 2-fold higher in IC50: 21 µM for the first, 43 µM for the second. The first is the more potent here.

Compared with `O=C(O)c1cccc2c1OCCN2C(=O)c1cc(Cl)c(O)c(Cl)c1` [Example 62, 4-(3,5-dichloro-4-hydroxybenzoyl)-3,4-dihydro-2H-benzo[1,4]oxazine-8-carboxylic acid], `O=C(c1cc(Cl)c(O)c(Cl)c1)N1CCOc2ccc([N+](=O)[O-])cc21` [Example 67, (3,5-dichloro-4-hydroxyphenyl)-(6-nitro-2,3-dihydrobenzo[1,4]oxazin-4-yl)-methanone] is lower in IC50: greater than 50 µM for the first, 49 µM for the second.

Going from `O=C(c1cc(Cl)c(O)c(Cl)c1)N1c2ccccc2Oc2ccccc21` [Example 64, (3,5-dichloro-4-hydroxyphenyl)-phenoxazin-10-ylmethanone] to `O=C(c1cc(Cl)c(O)c(Cl)c1)N1CCOc2ccc(-c3ccccc3)cc21` [Example 65, (3,5-dichloro-4-hydroxyphenyl)-(6-phenyl-2,3-dihydrobenzo[1,4]oxazin-4-yl)-methanone], the IC50 rises from 6 µM to 14 µM (2.3-fold). The first is the more potent here.

Going from `Cc1cc(C)c2c(c1)N(C(=O)c1cc(Cl)c(O)c(Cl)c1)CCO2` [Example 66, (3,5-dichloro-4-hydroxyphenyl)-(6,8-dimethyl-2,3-dihydrobenzo[1,4]oxazin-4-yl)-methanone] to `O=C(c1cc(Cl)c(O)c(Cl)c1)N1CCOc2cc([N+](=O)[O-])ccc21` [Example 70, (3,5-dichloro-4-hydroxyphenyl)-(7-nitro-2,3-dihydrobenzo[1,4]oxazin-4-yl)-methanone], the IC50 rises from 12 µM to 20 µM (1.7-fold).

First: O=C(c1cc(Br)c(O)c(Br)c1)N1CCOc2ccc([N+](=O)[O-])cc21 [Example 69, (3,5-dibromo-4-hydroxyphenyl)-(6-nitro-2,3-dihydrobenzo[1,4]oxazin-4-yl)-methanone]
Second: O=C(c1cc(Br)c(O)c(Br)c1)N1CCOc2ccc(F)cc21 [Example 79, (3,5-dibromo-4-hydroxyphenyl)-(6-fluoro-2,3-dihydrobenzo[1,4]oxazin-4-yl)-methanone]
The IC50 of the first is 1.6-fold higher: 21 µM for the first, 13 µM for the second. The second is the more potent here.

Compared with `CS(=O)(=O)Nc1ccc2c(c1)OCCN2C(=O)c1cc(Cl)c(O)c(Cl)c1` [Example 72, N-[4-(3,5-dichloro-4-hydroxybenzoyl)-3,4-dihydro-2H-benzo[1,4]oxazin-7-yl]-methanesulfonamide], `CS(=O)(=O)N1CCN(C(=O)c2cc(Cl)c(O)c(Cl)c2)c2ccccc21` [Example 83, (3,5-dichloro-4-hydroxyphenyl)-(4-methanesulfonyl-3,4-dihydro-2H-quinoxalin-1-yl)-methanone] is higher in IC50: 13 µM for the first, greater than 50 µM for the second.

First: CN1CCN(C(=O)c2cc(Cl)c(O)c(Cl)c2)c2ccccc21 [Example 74, (3,5-dichloro-4-hydroxyphenyl)-(4-methyl-3,4-dihydro-2H-quinoxalin-1-yl)-methanone]
Second: Nc1ccc2c(c1)CCN2C(=O)c1cc(Cl)c(O)c(Cl)c1 [Example 78, (5-amino-2,3-dihydroindol-1-yl)-(3,5-dichloro-4-hydroxyphenyl)-methanone]
The IC50 of the first is 1.8-fold higher: 33 µM for the first, 18 µM for the second. The second is the more potent here.

Compared with `O=C(c1ccc(O)c([N+](=O)[O-])c1)N1CCOc2ccccc21` [Example 75, (2,3-dihydrobenzo[1,4]oxazin-4-yl)-(4-hydroxy-3-nitrophenyl)-methanone], `O=C(c1cc(Br)c(O)c(Br)c1)N1CCOc2ccc3ccccc3c21` [Example 80, (3,5-dibromo-4-hydroxyphenyl)-(2,3-dihydronaphtho[2,1-b][1,4]oxazin-1-yl)-methanone] is lower in IC50: greater than 50 µM for the first, 5 µM for the second.

`Cc1ccc2c(c1)N(C(=O)c1cc(Br)c(O)c(Br)c1)CCO2` [Example 81, (3,5-dibromo-4-hydroxyphenyl)-(6-methyl-2,3-dihydrobenzo[1,4]oxazin-4-yl)-methanone] and `O=C(c1cc(Br)c(O)c(Br)c1)N1CCOc2ccc(Cl)cc21` [Example 82, (6-chloro-2,3-dihydrobenzo[1,4]oxazin-4-yl)-(3,5-dibromo-4-hydroxyphenyl)-methanone] are within 1.5-fold of each other in IC50: 13 µM for the first, 11 µM for the second.
